Measured values: PubChem BioAssay (NCI)
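All cell lines were grown in 96-well plates and treated with compound for 48 hours. GI50: concentration for 50% inhibition of growth. TGI denotes the concentration required for complete inhibition of growth.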

Tests used:
Assay in all cases: NCI-60 cell line screen, 48 h
[1] = tested on: OVCAR-4 ovarian
[2] = tested on: SF-295 CNS
[3] = tested on: SK-MEL-28 melanoma
[4] = tested on: HCC-2998 colon
[5] = tested on: M14 melanoma
[6] = tested on: LOX IMVI melanoma
[7] = tested on: SF-268 CNS
[8] = tested on: HL-60(TB) leukemia
[9] = tested on: OVCAR-3 ovarian
[10] = tested on: NCI/ADR-RES ovarian
[11] = tested on: SNB-19 CNS
[12] = tested on: NCI-H522 lung
[13] = tested on: IGROV1 ovarian
[14] = tested on: CAKI-1 renal
[15] = tested on: HT29 colon
[16] = tested on: ACHN renal
[17] = tested on: UACC-257 melanoma
[18] = tested on: DU-145 prostate
[19] = tested on: SF-539 CNS
[20] = tested on: MDA-MB-468 breast
[21] = tested on: MDA-MB-435
[22] = tested on: KM12 colon
[23] = tested on: T-47D breast
[24] = tested on: NCI-H23 lung
[25] = tested on: CCRF-CEM leukemia
[26] = tested on: RPMI-8226 leukemia
[27] = tested on: MDA-MB-231 breast
[28] = tested on: OVCAR-8 ovarian
[29] = tested on: SNB-75 CNS
[30] = tested on: SK-MEL-2 melanoma
[31] = tested on: NCI-H226 lung
[32] = tested on: U251 CNS
[33] = tested on: SR leukemia
[34] = tested on: UO-31 renal
[35] = tested on: MOLT-4 leukemia
[36] = tested on: SK-OV-3 ovarian
[37] = tested on: BT-549 breast
[38] = tested on: RXF 393 renal
[39] = tested on: OVCAR-5 ovarian
[40] = tested on: EKVX NSCLC
[41] = tested on: SW-620 colon
[42] = tested on: TK-10 renal
[43] = tested on: A498 renal
[44] = tested on: HS 578T breast
[45] = tested on: A549 NSCLC
[46] = tested on: COLO 205 colon
[47] = tested on: NCI-H460 lung
[48] = tested on: HCT-15 colon
[49] = tested on: MALME-3M melanoma
[50] = tested on: SN12C renal
[51] = tested on: SK-MEL-5 melanoma
[52] = tested on: HOP-62 NSCLC
[53] = tested on: HCT-116 colon
[54] = tested on: 786-0 renal
[55] = tested on: PC-3 prostate
[56] = tested on: MCF7 breast
[57] = tested on: UACC-62 melanoma
[58] = tested on: HOP-92 NSCLC
[59] = tested on: K-562 leukemia

O=C(NNc1nc2cc(C(F)(F)F)ccc2n2cccc12)c1cnccn1
GI50 [1]: 0.266 µM
TGI [1]: 2.27 µM
GI50 [2]: 0.134 µM
TGI [2]: 1.59 µM
GI50 [3]: 0.478 µM
TGI [3]: 2.09 µM
GI50 [4]: 0.463 µM
TGI [4]: 2.03 µM
GI50 [5]: 0.25 µM
TGI [5]: 1.37 µM
GI50 [6]: 0.128 µM
TGI [6]: 1.3 µM
GI50 [7]: 0.357 µM
TGI [7]: 3.9 µM
GI50 [8]: 0.166 µM
TGI [8]: 1.69 µM
GI50 [9]: 0.287 µM
TGI [9]: 1.58 µM
GI50 [10]: 0.255 µM
TGI [10]: 1.48 µM
GI50 [11]: 0.437 µM
TGI [11]: 2.54 µM
GI50 [12]: 0.248 µM
TGI [12]: 0.944 µM
GI50 [13]: 0.146 µM
TGI [13]: 1.6 µM
GI50 [14]: 0.299 µM
TGI [14]: 1.66 µM
GI50 [15]: 0.553 µM
TGI [15]: 2.31 µM
GI50 [16]: 0.217 µM
TGI [16]: 1.45 µM
GI50 [17]: 0.501 µM
TGI [17]: 1.94 µM
GI50 [18]: 0.526 µM
TGI [18]: 2.44 µM
GI50 [19]: 0.406 µM
TGI [19]: 1.98 µM
GI50 [20]: 0.19 µM
TGI [20]: 0.661 µM
GI50 [21]: 0.807 µM
TGI [21]: 2.71 µM
GI50 [22]: 0.341 µM
TGI [22]: 2.06 µM
GI50 [23]: 0.292 µM
TGI [23]: 1.72 µM
GI50 [24]: 0.517 µM
TGI [24]: 2.03 µM
GI50 [25]: 0.141 µM
TGI [25]: 1.95 µM
GI50 [26]: 0.29 µM
TGI [26]: 3.45 µM
GI50 [27]: 0.438 µM
TGI [27]: 1.94 µM
GI50 [28]: 0.365 µM
TGI [28]: 2.38 µM
GI50 [29]: 1.01 µM
TGI [29]: 2.88 µM
GI50 [30]: 0.475 µM
TGI [30]: 1.73 µM
GI50 [31]: 0.772 µM
TGI [31]: 3.9 µM
GI50 [32]: 0.199 µM
TGI [32]: 2.21 µM
GI50 [33]: 0.0469 µM
TGI [33]: 1.2 µM
GI50 [34]: 0.0832 µM
TGI [34]: 1.57 µM
GI50 [35]: 0.235 µM
TGI [35]: 5.06 µM
GI50 [36]: 0.477 µM
TGI [36]: 1.86 µM
GI50 [37]: 1.06 µM
TGI [37]: 3.41 µM
GI50 [38]: 1.05 µM
TGI [38]: 2.31 µM
GI50 [39]: 0.776 µM
TGI [39]: 2.49 µM
GI50 [40]: 0.176 µM
TGI [40]: 1.23 µM
GI50 [41]: 0.422 µM
TGI [41]: 2.47 µM
GI50 [42]: 0.452 µM
TGI [42]: 1.77 µM
GI50 [43]: 1.62 µM
TGI [43]: 3.34 µM
GI50 [44]: 1.5 µM
TGI [44]: 10.7 µM
GI50 [45]: 0.424 µM
TGI [45]: 8.91 µM
GI50 [46]: 0.364 µM
TGI [46]: 1.48 µM
GI50 [47]: 0.116 µM
TGI [47]: 5.58 µM
GI50 [48]: 0.0891 µM
TGI [48]: 1.55 µM
GI50 [49]: 1.14 µM
TGI [49]: 2.55 µM
GI50 [50]: 0.411 µM
TGI [50]: 2.07 µM
GI50 [51]: 0.602 µM
TGI [51]: 1.96 µM
GI50 [52]: 0.214 µM
TGI [52]: 1.92 µM
GI50 [53]: 0.182 µM
TGI [53]: 1.32 µM
GI50 [54]: 0.365 µM
TGI [54]: 1.69 µM
GI50 [55]: 0.325 µM
TGI [55]: 2.19 µM
GI50 [56]: 0.293 µM
TGI [56]: 1.5 µM
GI50 [57]: 0.302 µM
TGI [57]: 1.57 µM
GI50 [58]: 0.33 µM
TGI [58]: 2.2 µM
GI50 [59]: 0.356 µM
